Data on 18 molecules can be found in PubChem BioAssay AID296 (DTP/NCI, 2004).

The assay deals with MX-1 breast xenograft, nude mice, tumor weight T/C. Kind of assay: NCI In Vivo Anticancer Drug Screen. Data for tumor model Human Mammary Carcinoma MX-1 Xenograft (intrarenal inoculation) in NU/NU Swiss (nude) mice. The settings on record: endpoint: mean tumor weight change, higher = larger tumour. In short, it runs like this:
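Activity is given as a ratio, with each measurement in the compound-treated arm divided by the matching measurement in vehicle-dosed controls. Tumour size or survival serves as the measured parameter.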
(In general: A xenograft is tissue or cells of one species grown in another, often human tumour cells in immunodeficient mice.)

The mark [1] stands for this setting: dose: 75.0 mg/kg/injection, schedule: Q04DX003 (sc), vehicle: saline.
Setting [2] is: dose: 600.0 mg/kg/injection, schedule: Q04DX003 (sc), vehicle: saline with Tween-80.
[3] abbreviates: dose: 1200.0 mg/kg/injection, schedule: Q04DX003 (sc), vehicle: saline with Tween-80.

SMILES strings stand for the structures. “And” between values parts separate entries of the source, which are not always exact repeats. Equal entries are not always repeated. Inconclusive results are not listed.

Regarding `C=C(NC(=O)C(=C)NC(=O)c1csc(C2=NC3c4csc(n4)C4NC(=O)c5csc(n5)C(C(C)(O)C(C)O)NC(=O)C5CSC(=N5)/C(=C/C)NC(=O)C(C(C)O)NC(=O)c5csc(n5)C3(CC2)NC(=O)C(C)NC(=O)C(=C)NC(=O)C(=C)NC(=O)C(C(C)C)NC2C=Cc3c(C(C)O)cc(nc3C2O)C(=O)OC4C)n1)C(N)=O` (configuration not stated), the T/C reads like this: (dose: 187.5 mg/kg/injection, schedule: Q04DX003 (sc), vehicle: suspension in saline) 123 % of control; (dose: 375.0 mg/kg/injection, schedule: Q04DX003 (sc), vehicle: suspension in saline) 98 % of control; (dose: 750.0 mg/kg/injection, schedule: Q04DX003 (sc), vehicle: suspension in saline) 105 % of control; (dose: 1500.0 mg/kg/injection, schedule: Q04DX003 (sc), vehicle: suspension in saline) 152 % of control.

As for `C=CS(C=C)=NS(=O)(=O)c1ccc(C)cc1`, the T/C by setting is: (dose: 18.75 mg/kg/injection, schedule: Q04DX003 (sc), vehicle: Klucel (hydroxypropylcellulose) (HPC)) 64 % of control; (dose: 37.5 mg/kg/injection, schedule: Q04DX003 (sc), vehicle: Klucel (hydroxypropylcellulose) (HPC)) 87 % of control.

`[Cl][Mn][Cl]`: the T/C reads like this: (dose: 37.5 mg/kg/injection, schedule: Q04DX003 (sc), vehicle: saline) 115 % of control; under setting [1], 109 % of control; (dose: 150.0 mg/kg/injection, schedule: Q04DX003 (sc), vehicle: saline) 104 % of control.

`COc1cccc2c1C(=O)c1c(O)c3c(c(O)c1C2=O)C[C@@](O)(C(=O)CO)C[C@@H]3OC1CC(N)C(OC)C(C)O1` (some centres not stated): the T/C (dose: 1.5 mg/kg/injection, schedule: Q01DX010 (sc), vehicle: saline) is 54 % of control.

Regarding `CCN(CC)CCNc1ccc(C)c2sc3ccc(O)cc3c(=O)c12`, the T/C is 67 % of control under setting [2] and 57 % of control under setting [3].

`CC1(CO)C(O)CCC2(C)C1CCC1CC3CC12CCC3(O)CO` (configuration not stated): the T/C reads like this: (dose: 50.0 mg/kg/injection, schedule: Q01DX010 (sc), vehicle: saline with Tween-80) 56 % of control; (dose: 100.0 mg/kg/injection, schedule: Q01DX010 (sc), vehicle: saline with Tween-80) 38 % of control.

As for `CCOC(=O)C(N)C[S][Sn]([CH3])([CH3])[Cl]` (configuration not stated), under setting [1], the T/C was 155 % of control.

As for `C=C(c1ccc(OC)c(OC)c1)c1nccc2cc(OC)c(OC)cc12`, the T/C is 91 % of control (dose: 150.0 mg/kg/injection, schedule: Q04DX003 (sc), vehicle: Klucel (hydroxypropylcellulose) (HPC)); 71 % of control (dose: 300.0 mg/kg/injection, schedule: Q04DX003 (sc), vehicle: Klucel (hydroxypropylcellulose) (HPC)); 89 % of control (dose: 600.0 mg/kg/injection, schedule: Q04DX003 (sc), vehicle: Klucel (hydroxypropylcellulose) (HPC)); 54 % of control (dose: 1200.0 mg/kg/injection, schedule: Q04DX003 (sc), vehicle: Klucel (hydroxypropylcellulose) (HPC)).

For the molecule `Cc1ccc(C(=O)NC2C(=O)NC(C(C)C)C(=O)N3CCCC3C(=O)N(C)CC(=O)N(C)C(C(C)C)C(=O)OC2C)c2c1Oc1c(c(C(=O)NC3C(=O)NC(C(C)C)C(=O)N4CCCC4C(=O)N(C)CC(=O)N(C)C(C(C)C)C(=O)OC3C)c3nc(-c4ccccc4)c(=O)oc3c1C)N2` (configuration not stated), the T/C reads like this: (dose: 0.25 mg/kg/injection, schedule: Q04DX003 (ip), vehicle: water) 77 % of control; (dose: 0.5 mg/kg/injection, schedule: Q04DX003 (ip), vehicle: water) 75 % of control; (dose: 1.0 mg/kg/injection, schedule: Q04DX003 (ip), vehicle: water) 49 % of control; (dose: 2.0 mg/kg/injection, schedule: Q04DX003 (ip), vehicle: water) 51 % of control; (dose: 4.0 mg/kg/injection, schedule: Q04DX003 (ip), vehicle: water) 12 % of control.

Turning to `CNC(=O)OCc1c(COC(=O)NC)c(-c2ccccc2)n(C)c1-c1ccccc1`, the T/C was 121 % of control (dose: 100.0 mg/kg/injection, schedule: Q04DX003 (sc), vehicle: distilled water + Tween-80); 51 % of control (dose: 200.0 mg/kg/injection, schedule: Q04DX003 (sc), vehicle: distilled water + Tween-80); 78 % of control (dose: 400.0 mg/kg/injection, schedule: Q04DX003 (sc), vehicle: distilled water + Tween-80); 74 % of control (dose: 800.0 mg/kg/injection, schedule: Q04DX003 (sc), vehicle: distilled water + Tween-80).

Regarding `O=C1c2c(O)ccc(O)c2C(=O)c2c(NCCNCCO)ccc(NCCNCCO)c21`, the T/C was 40 % of control (dose: 0.5 mg/kg/injection, schedule: Q01DX010 (sc), vehicle: acid diluted with saline); 62 % of control (dose: 2.0 mg/kg/injection, schedule: Q01DX010 (sc), vehicle: acid diluted with saline); 59 % of control (dose: 2.5 mg/kg/injection, schedule: Q04DX003 (sc), vehicle: other); 28 % of control (dose: 2.5 mg/kg/injection, schedule: Q04DX003 (sc), vehicle: water); 34 % of control (dose: 5.0 mg/kg/injection, schedule: Q04DX003 (sc), vehicle: other); 9 % of control and 29 % of control (dose: 5.0 mg/kg/injection, schedule: Q04DX003 (sc), vehicle: water). Further, the T/C (dose: 10.0 mg/kg/injection, schedule: Q04DX003 (sc), vehicle: other) is 8 % of control and the T/C (dose: 10.0 mg/kg/injection, schedule: Q04DX003 (sc), vehicle: water) was 6 % of control.

Take `N#C[C@H](OC1OC(COC2OC(CO)C(O)C(O)C2O)C(O)C(O)C1O)c1ccccc1` (some centres not stated): the T/C (dose: 450.0 mg/kg/injection, schedule: Q04DX003 (sc), vehicle: saline) is 63 % of control; the T/C (dose: 900.0 mg/kg/injection, schedule: Q04DX003 (sc), vehicle: saline) was 69 % of control; the T/C (dose: 1800.0 mg/kg/injection, schedule: Q04DX003 (sc), vehicle: saline) was 70 % of control; the T/C (dose: 3600.0 mg/kg/injection, schedule: Q04DX003 (sc), vehicle: saline) was 67 % of control.

As for `OC(C1CO1)C(O)C1CO1` (configuration not stated), the T/C (dose: 1.0 mg/kg/injection, schedule: Q01DX010 (sc), vehicle: saline) is 5 % of control and 18 % of control.

Regarding `CCOC(=O)C(N)CSC(=O)NC` (configuration not stated), the T/C is 12 % of control (dose: 112.0 mg/kg/injection, schedule: Q04DX003 (sc), vehicle: saline); 33 % of control (dose: 300.0 mg/kg/injection, schedule: Q04DX003 (sc), vehicle: saline); 15 % of control (dose: 400.0 mg/kg/injection, schedule: Q04DX003 (sc), vehicle: saline); 8 % of control (dose: 600.0 mg/kg/injection, schedule: Q04DX003 (sc), vehicle: saline); 3 % of control (dose: 800.0 mg/kg/injection, schedule: Q04DX003 (sc), vehicle: saline).

As for `COc1cc(C(C)(C)C)cc(OC)c1C(O)(c1c(OC)cc(C(C)(C)C)cc1OC)c1c(OC)cc(C(C)(C)C)cc1OC`, the T/C reads like this: under setting [2], 212 % of control; under setting [3], 154 % of control; (dose: 2400.0 mg/kg/injection, schedule: Q04DX003 (sc), vehicle: saline with Tween-80) 207 % of control.

Take `CC1(C)N=C(N)N=C(N)N1c1ccc(CCCCc2ccc(S(=O)(=O)F)cc2Cl)c(Cl)c1`: the T/C runs as follows: (dose: 12.5 mg/kg/injection, schedule: Q01DX010 (sc), vehicle: suspension in saline) 87 % of control; (dose: 25.0 mg/kg/injection, schedule: Q01DX010 (sc), vehicle: suspension in saline) 77 % of control; (dose: 50.0 mg/kg/injection, schedule: Q01DX010 (sc), vehicle: suspension in saline) 57 % of control.

On to `CN=C(N)N/N=C(\C)c1ccc2c(c1)Cc1cc(/C(C)=N/NC(N)=NC)ccc1-2`, for which the T/C is 46 % of control (dose: 6.0 mg/kg/injection, schedule: Q04DX003 (sc), vehicle: saline with Tween-80); 84 % of control (dose: 12.0 mg/kg/injection, schedule: Q04DX003 (sc), vehicle: saline with Tween-80); 100 % of control (dose: 24.0 mg/kg/injection, schedule: Q04DX003 (sc), vehicle: saline with Tween-80); 58 % of control (dose: 48.0 mg/kg/injection, schedule: Q04DX003 (sc), vehicle: saline with Tween-80).

For the molecule `O=C(O)C(CSC(c1ccccc1)(c1ccccc1)c1ccccc1)N=Cc1cccs1` (configuration not stated), under “dose: 800.0 mg/kg/injection, schedule: Q04DX003 (sc), vehicle: suspension in saline”, the T/C was 67 % of control.
